Assay results taken from PubChem BioAssay AID2060893 (Molecular Pharmacology Branch, DTP, NCI, 2025).

Tested on: K86415-001-R-J1-PDC complex spheroids, viability
Assay: Anticancer human tumor K86415-001-R-J1-PDC patient-derived lung adenocarcinoma cell line growth inhibition [RAS]
Conditions: for IC50: curve of first compound; for viability, T/C: stronger effect = lower value
In short: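 Multi-cell-type spheroids: tumor cells plus HUVEC endothelial cells and mesenchymal stem cells. RAS-pathway inhibitors were combined with targeted agents, each dosed in half-log steps down from clinical Cmax, or from 10 microM when Cmax was unknown.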

[1] = second compound 0.000949 µM, first compound 0.000949 µM
[2] = second compound 0.000949 µM, first compound 0.003 µM
[3] = second compound 0.000949 µM, first compound 0.00949 µM
[4] = second compound 0.000949 µM, first compound 0.03 µM
[5] = second compound 0.000949 µM, first compound 0.0949 µM
[6] = second compound 0.000949 µM, first compound 0.3 µM
[7] = second compound 0.003 µM, first compound 0.000949 µM
[8] = second compound 0.003 µM, first compound 0.003 µM
[9] = second compound 0.003 µM, first compound 0.00949 µM
[10] = second compound 0.003 µM, first compound 0.03 µM
[11] = second compound 0.003 µM, first compound 0.0949 µM
[12] = second compound 0.003 µM, first compound 0.3 µM
[13] = second compound 0.00949 µM, first compound 0.000949 µM
[14] = second compound 0.00949 µM, first compound 0.003 µM
[15] = second compound 0.00949 µM, first compound 0.00949 µM
[16] = second compound 0.00949 µM, first compound 0.03 µM
[17] = second compound 0.00949 µM, first compound 0.0949 µM
[18] = second compound 0.00949 µM, first compound 0.3 µM
[19] = second compound 0.03 µM, first compound 0.000949 µM
[20] = second compound 0.03 µM, first compound 0.003 µM
[21] = second compound 0.03 µM, first compound 0.00949 µM
[22] = second compound 0.03 µM, first compound 0.03 µM
[23] = second compound 0.03 µM, first compound 0.0949 µM
[24] = second compound 0.03 µM, first compound 0.3 µM
[25] = second compound 0.0949 µM, first compound 0.000949 µM
[26] = second compound 0.0949 µM, first compound 0.003 µM
[27] = second compound 0.0949 µM, first compound 0.00949 µM
[28] = second compound 0.0949 µM, first compound 0.03 µM
[29] = second compound 0.0949 µM, first compound 0.0949 µM
[30] = second compound 0.0949 µM, first compound 0.3 µM
[31] = second compound 0.3 µM, first compound 0.000949 µM
[32] = second compound 0.3 µM, first compound 0.003 µM
[33] = second compound 0.3 µM, first compound 0.00949 µM
[34] = second compound 0.3 µM, first compound 0.03 µM
[35] = second compound 0.3 µM, first compound 0.0949 µM
[36] = second compound 0.3 µM, first compound 0.3 µM
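Further: spheroids exposed to agents for seven days before readout.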

With C=CC(=O)N1CCN(c2nc(OCC3CCCN3C)nc3c(F)c(-c4nc(N)cc(C)c4C(F)(F)F)c(Cl)cc23)C(C)C1 (stereo unspecified) + CCn1c(-c2cccnc2C(C)OC)c2c3cc(ccc31)N1CCOC(CC(NC(=O)C(C(C)C)N(C)C(=O)C3(F)CCN(C(=O)C#CC(C)(C)N(C)C)CC3)C(=O)N3CCCC(N3)C(=O)OCC(C)(C)C2)C1 the IC50 (second compound 0.000949 µM) was under 3.16 nM, the IC50 (second compound 0.003 µM) was under 3.16 nM and the IC50 (second compound 0.00949 µM) was under 3.16 nM. For the same molecule, the IC50 (second compound 0.03 µM) was under 3.16 nM, the IC50 (second compound 0.0949 µM) was under 3.16 nM and the IC50 (second compound 0.3 µM) was under 3.16 nM. For the same molecule, the viability, T/C (second compound 0.000949 µM, first compound 0.00316 µM) was 13.8%, the viability, T/C (second compound 0.000949 µM, first compound 0.01 µM) was 12.1% and the viability, T/C (second compound 0.000949 µM, first compound 0.0316 µM) was 9.94%. The viability, T/C (second compound 0.000949 µM, first compound 0.1 µM) was 9.02%, the viability, T/C (second compound 0.000949 µM, first compound 0.316 µM) was 11.8% and the viability, T/C (second compound 0.000949 µM, first compound 1 µM) was 9.5%. The viability, T/C (second compound 0.003 µM, first compound 0.00316 µM) was 13.5%, the viability, T/C (second compound 0.003 µM, first compound 0.01 µM) was 12.9% and the viability, T/C (second compound 0.003 µM, first compound 0.0316 µM) was 12.2%. It also gave a viability, T/C (second compound 0.003 µM, first compound 0.1 µM) of 11.1%, a viability, T/C (second compound 0.003 µM, first compound 0.316 µM) of 12% and a viability, T/C (second compound 0.003 µM, first compound 1 µM) of 9.09%. It also gave a viability, T/C (second compound 0.00949 µM, first compound 0.00316 µM) of 13.7%, a viability, T/C (second compound 0.00949 µM, first compound 0.01 µM) of 10.7% and a viability, T/C (second compound 0.00949 µM, first compound 0.0316 µM) of 14.6%. The viability, T/C (second compound 0.00949 µM, first compound 0.1 µM) was 10.1%, the viability, T/C (second compound 0.00949 µM, first compound 0.316 µM) was 10.7% and the viability, T/C (second compound 0.00949 µM, first compound 1 µM) was 11.4%. For the same molecule, the viability, T/C (second compound 0.03 µM, first compound 0.00316 µM) was 13%, the viability, T/C (second compound 0.03 µM, first compound 0.01 µM) was 13.4% and the viability, T/C (second compound 0.03 µM, first compound 0.0316 µM) was 11.1%. For the same molecule, the viability, T/C (second compound 0.03 µM, first compound 0.1 µM) was 11.8%, the viability, T/C (second compound 0.03 µM, first compound 0.316 µM) was 11.7% and the viability, T/C (second compound 0.03 µM, first compound 1 µM) was 16.2%. For the same molecule, the viability, T/C (second compound 0.0949 µM, first compound 0.00316 µM) was 11%, the viability, T/C (second compound 0.0949 µM, first compound 0.01 µM) was 10.7% and the viability, T/C (second compound 0.0949 µM, first compound 0.0316 µM) was 13.2%. The viability, T/C (second compound 0.0949 µM, first compound 0.1 µM) was 11.2%, the viability, T/C (second compound 0.0949 µM, first compound 0.316 µM) was 12.8% and the viability, T/C (second compound 0.0949 µM, first compound 1 µM) was 15.8%. The viability, T/C (second compound 0.3 µM, first compound 0.00316 µM) was 12%, the viability, T/C (second compound 0.3 µM, first compound 0.01 µM) was 12.6% and the viability, T/C (second compound 0.3 µM, first compound 0.0316 µM) was 14.4%. The viability, T/C (second compound 0.3 µM, first compound 0.1 µM) was 11.2%, the viability, T/C (second compound 0.3 µM, first compound 0.316 µM) was 14% and the viability, T/C (second compound 0.3 µM, first compound 1 µM) was 14.1%.

For CC1(C)CCC(Nc2ncc(C(F)(F)F)c(-c3c[nH]c4c(P(C)(C)=O)c(C#N)ccc34)n2)CN1 (stereo unspecified) + CCn1c(-c2cccnc2C(C)OC)c2c3cc(ccc31)N1CCOC(CC(NC(=O)C(C(C)C)N(C)C(=O)C3(F)CCN(C(=O)C#CC(C)(C)N(C)C)CC3)C(=O)N3CCCC(N3)C(=O)OCC(C)(C)C2)C1, the IC50 (second compound 0.000949 µM) was under 0.949 nM, the IC50 (second compound 0.003 µM) was under 0.949 nM and the IC50 (second compound 0.00949 µM) was under 0.949 nM. The IC50 (second compound 0.03 µM) was under 0.949 nM, the IC50 (second compound 0.0949 µM) was under 0.949 nM and the IC50 (second compound 0.3 µM) was under 0.949 nM. For the same molecule, the viability, T/C [1] was 46.4%, the viability, T/C [2] was 48.8% and the viability, T/C [3] was 35.2%. It also gave a viability, T/C [4] of 57.9%, a viability, T/C [5] of 54.9% and a viability, T/C [6] of 41.8%. It also gave a viability, T/C [7] of 15.9%, a viability, T/C [8] of 14.2% and a viability, T/C [9] of 17.2%. For the same molecule, the viability, T/C [10] was 19.4%, the viability, T/C [11] was 22.6% and the viability, T/C [12] was 20.4%. For the same molecule, the viability, T/C [13] was 13.5%, the viability, T/C [14] was 12.7% and the viability, T/C [15] was 16.5%. It also gave a viability, T/C [16] of 20.3%, a viability, T/C [17] of 20.1% and a viability, T/C [18] of 21.1%. It also gave a viability, T/C [19] of 13.3%, a viability, T/C [20] of 16.3% and a viability, T/C [21] of 17%. The viability, T/C [22] was 13.9%, the viability, T/C [23] was 14.8% and the viability, T/C [24] was 21.1%. For the same molecule, the viability, T/C [25] was 12.1%, the viability, T/C [26] was 17.4% and the viability, T/C [27] was 17.6%. It also gave a viability, T/C [28] of 19.6%, a viability, T/C [29] of 15.4% and a viability, T/C [30] of 20.1%. The viability, T/C [31] was 15.7%, the viability, T/C [32] was 15.3% and the viability, T/C [33] was 16.7%. The viability, T/C [34] was 14.6%, the viability, T/C [35] was 18.2% and the viability, T/C [36] was 20.9%.

Molecule CCc1c2c(nc3ccc(O)cc13)-c1cc3c(c(=O)n1C2)COC(=O)[C@]3(O)CC + CCn1c(-c2cccnc2C(C)OC)c2c3cc(ccc31)N1CCOC(CC(NC(=O)C(C(C)C)N(C)C(=O)C3(F)CCN(C(=O)C#CC(C)(C)N(C)C)CC3)C(=O)N3CCCC(N3)C(=O)OCC(C)(C)C2)C1 has an IC50 (second compound 0.000949 µM) of under 0.949 nM, an IC50 (second compound 0.003 µM) of under 0.949 nM and an IC50 (second compound 0.00949 µM) of under 0.949 nM. The IC50 (second compound 0.03 µM) was under 0.949 nM, the IC50 (second compound 0.0949 µM) was under 0.949 nM and the IC50 (second compound 0.3 µM) was under 0.949 nM. The viability, T/C [1] was 36.7%, the viability, T/C [2] was 25.1% and the viability, T/C [3] was 10.1%. The viability, T/C [4] was 12.2%, the viability, T/C [5] was 9.29% and the viability, T/C [6] was 3.47%. For the same molecule, the viability, T/C [7] was 11.9%, the viability, T/C [8] was 13.2% and the viability, T/C [9] was 9.42%. It also gave a viability, T/C [10] of 10.6%, a viability, T/C [11] of 6.9% and a viability, T/C [12] of 2.68%. The viability, T/C [13] was 11.8%, the viability, T/C [14] was 10.5% and the viability, T/C [15] was 10.8%. It also gave a viability, T/C [16] of 9.69%, a viability, T/C [17] of 7.47% and a viability, T/C [18] of 3.83%. The viability, T/C [19] was 10.7%, the viability, T/C [20] was 11.6% and the viability, T/C [21] was 8.61%. The viability, T/C [22] was 10.2%, the viability, T/C [23] was 6.38% and the viability, T/C [24] was 2.86%. For the same molecule, the viability, T/C [25] was 10.8%, the viability, T/C [26] was 9.6% and the viability, T/C [27] was 10.9%. For the same molecule, the viability, T/C [28] was 9.82%, the viability, T/C [29] was 3.93% and the viability, T/C [30] was 2.05%. For the same molecule, the viability, T/C [31] was 13.9%, the viability, T/C [32] was 9.91% and the viability, T/C [33] was 7.1%. The viability, T/C [34] was 6.45%, the viability, T/C [35] was 3.04% and the viability, T/C [36] was 2.24%.
